In patent US20080098491A1, “MOUSE MODELS TO STUDY CACHEXIA” (ZOLTAN LABORATORIES LLC, priority 2006, published 2008):

Legend:
[1] = test system: MXT mouse mammary tumor; experiment: Cisplatin-treated MXT mouse mammary tumor model, purified PALP, AT, holo-TF, apo-TF (Example 9, Experiment 2); assay type: in vivo; details: 12-mg/kg s.c. with cisplatin 3-mg/kg i.p.
Text: (§1) The B16 mouse melanoma and MXT mouse mammary tumors were developed in first generation hybrid BDF1 (C57 B1 female×DBA/2 male) adult female mice kept at specified pathogen free (SPF) hygienic level. These models were chosen for these experiments because these mice have the complete immune system, and both tumors grow very rapidly. To develop the tumors, B16 and MXT tumor tissue fragments of about 0.1-cm^3 were surgically implanted subcutaneously into the intrascapular region to develop the tumors. Each tumor fragment contained about 1-1.5×10^6 cells. The animals were kept in macrolon cages on ventilated rack at 22-24° C. (50-60% humidity) with lighting regimen of 12/12 h light/dark. The animals had free access to tap water and were fed with sterilized standard diet (Charles River VRF1, Germany) ad libitum. The animals were taken care of according to the “Guiding Principle for the care and use of Animals” based upon the Helsinki declaration and they were approved by the local ethical committee.
(§2) In case of both tumor models the tumor size was usually in the range of 0.2 to 0.5-g when treatments started 7-11 days after tumor implantation; the mice were selected so that in the same treatment group the difference in tumor size was no greater than 0.1 gram. In some experiments, the test proteins were suspended in physiological saline and injected in 50-μl volume subcutaneously in the vicinity of tumor (within 1-cm of tumor margin). In other experiments, the test proteins were dispersed in Vaselinum cholesteratum and used topically; 150-mg cream was applied on the tumor and the vicinity of tumor area (with about 0.5-cm of the tumor margin). The tumor volume was determined by using calipers; this technique is well known to one having ordinary skill in the art. Tumor volume was calculated according to the generally accepted formula: V=a^2×b×7r/6, where “a” and “b” mean the shortest and longest diameter, respectively, of the measured tumor.
Experiment 2. The commercial PALP used in this model for Exp. 1 was composed of PALP (˜10%), TF (˜12%), AT (˜30%), albumin (˜35%) and the degradation products of TF (˜13%). […] In this experiment, it was determined whether the other two major proteins, i.e. TF and AT, present in the commercial PALP preparation in addition to PALP, also influence cisplatin-induced loss of body weight or not. The mouse MXT mammary tumor was developed as described in Example 3. In the first group, animals remained untreated during the whole observation period. In the second group, starting on the 7th day after tumor implantation, mice were administered 3-mg per 1-kg of cisplatin i.p. 6-times every second day. In the third group, starting on the 7th day after tumor implantation, mice were simultaneously administered 3-mg per 1-kg of cisplatin i.p. and 12-mg per 1-kg of purified PALP s.c. In the fourth group, starting on the 7th day after tumor implantation, mice were simultaneously administered 3-mg per 1-kg of cisplatin i.p. and 12-mg per 1-kg of highly purified AT s.c. In the fifth group, starting on the 7th day after tumor implantation, mice were simultaneously administered 3-mg per 1-kg of cisplatin i.p. and 12-mg per 1-kg of commercial holo-TF (h-TF, T 0665 in the Sigma catalog) s.c. In the sixth group, starting on the 7th day after tumor implantation, mice were simultaneously administered 3-mg per 1-kg of cisplatin i.p. and 12-mg per 1-kg of commercial apo-TF (a-TF, T 2036 in the Sigma catalog) s.c. Holo-TF contained 1,100-1,600 μg iron per gram protein while apo-TF was essentially iron-free. Each treatment with the proteins was also performed 6-times on every second day simultaneously with the cisplatin treatment. Each group included 7 animals. The mean values for total weight, tumor weight and body weight (the difference between total and tumor weight) are shown in gram in TABLE 7.

[2] = test system: B16 mouse melanoma; experiment: B16 mouse melanoma model, s.c. CCDTHT (Example 8); assay type: in vivo; details: for Body weight (total weight minus tumor weight) / Total weight / Tumor weight: CCDTHT 4.5-mg/kg s.c. daily from day 11 until day 22
Text: as §1, §2
In this model, CCDTHT, a chemically synthesized compound is used to prevent or reverse tumor-induced body weight loss. The B16 mouse tumors were developed as described in Example 3. Two experimental groups each involving five mice were used. In the first group, mice remained untreated during the entire observation period. In the second group, starting on the 11th day after tumor implantation, mice were s.c. administered 4.5-mg/kg CCDTHT; then the treatments were repeated daily until day 22. The mean values for total weight, tumor weight and body weight (the difference between total and tumor weight) are shown in TABLE 5.

[3] = test system: MXT mouse mammary tumor; experiment: Cisplatin-treated MXT mouse mammary tumor model, CCDTHT (Example 10); assay type: in vivo; details: with cisplatin 3-mg/kg i.p.
Text: as §1, §2
The mouse MXT mammary tumor was developed as described in Example 3. In the first group, animals remained untreated during the whole observation period. In the second group, starting on the 7th day after tumor implantation, mice were administered 3-mg per 1-kg of cisplatin i.p. 9-times every second day. In the third group, starting on the 7th day after tumor implantation, mice were simultaneously administered 3-mg per 1-kg of cisplatin i.p. and 4.6-mg per 1-kg of CCDTHT s.c. In the fourth group, starting on the 7th day after tumor implantation, mice were simultaneously administered 3-mg per 1-kg of cisplatin i.p. as well as 4.6-mg per 1-kg of CCDTHT s.c. and 14-mg per 1-kg of highly purified PALP s.c. Each treatment was performed 9-times on every second day. Each group included 7 animals. The mean values for total weight, tumor weight and body weight (the difference between total and tumor weight) are shown in TABLE 8.

[4] = test system: MXT mouse mammary tumor; experiment: Cisplatin-treated MXT mouse mammary tumor model, PALP and TF (Example 9, Experiment 1); assay type: in vivo; details: co-treated with cisplatin 3-mg/kg i.p.
Text: as §1, §2
Experiment 1. The mouse MXT mammary tumor was developed as described in Example 3. In the first group, animals remained untreated during the whole observation period. In the second group, starting on the 7th day after tumor implantation, mice were intraperitoneally (i.p.) administered 3-mg per 1-kg total weight of cisplatin 7-times every second day. In the third group, starting on the 7th day after tumor implantation, mice were simultaneously administered 3-mg per 1-kg of cisplatin i.p. and 16-mg per 1-kg of purified PALP s.c. In the fourth group, starting on the 7th day after tumor implantation, mice were simultaneously administered 3-mg per 1-kg of cisplatin i.p. and 60-mg per 1-kg of commercial PALP s.c. In the fifth group, starting on the 7th day after tumor implantation, mice were simultaneously administered 3-mg per 1-kg of cisplatin i.p. and 14-mg per 1-kg of commercial TF (T 3309 in the Sigma catalog) s.c. Each treatment was performed 7-times on every second day. Each group included 7 animals. The mean values for total weight, tumor weight and body weight (the difference between total and tumor weight) are shown in TABLE 6.

[5] = test system: B16 mouse melanoma; experiment: B16 mouse melanoma model, s.c. commercial PALP, s.c. plus topical PALP, or TF (Example 4, Experiment 2); assay type: in vivo; details: TF 16-mg/kg s.c.; for Body weight (total weight minus tumor weight) / Total weight / Tumor weight: days 11-18 daily: commercial PALP 60-mg/kg s.c., topical cream 4-mg commercial PALP/g
Text: as §1, §2
In this model, either highly purified PALP or commercial PALP was subcutaneously injected to reverse body weight loss in the rapidly growing B16 melanoma model. Two separate experiments were performed to validate the effects of highly purified PALP (Experiment 1) and commercial PALP (Experiment 2). For both experiments, the B16 mouse melanoma model was developed as described in Example 3. The data presented in TABLE 1 (for Experiment 1) and TABLE 2 (for Experiment 2) show the changes in total weight, tumor weight, and body weight (total weight minus tumor weight). In each experimental group all mice survived until the conclusion of the experiment.
Experiment 2. In this experiment, the first group of animals remained untreated for the entire observation period. In the second group, from day 11 through day 18 after implantation of tumor pieces, the animals were treated daily with 60-mg/kg of commercial PALP via s.c. administration (seven treatments). In the third group, from day 11 through day 18 after implantation of tumor pieces, the animals were simultaneously administered 60-mg/kg of commercial PALP via s.c injection and treated topically with 150-mg of cream containing 4-mg commercial PALP in 1-g of Vaselinum cholesteratum (seven treatments). Topical treatment involved spreading the cream on both the tumor and surrounding skin area. In the fourth group, from day 11 through day 18 after implantation of tumor pieces, the animals were treated with 16-mg/kg of commercial partially iron-saturated TF via subcutaneous administration (seven treatments). Each group included seven mice.

[6] = test system: fibroblast proliferation; experiment: Fibroblast proliferation in vitro, effect of pre-heating the protein; assay type: cell-based
Protocol: It is reasonable to expect that pre-heating of PALP at 65-75° C. prior to its use may also enhance its anti-cachectic effect. Thus, a step of heat-activation of both commercial and highly purified PALP preparation may be included prior to their applications.
Thus, pre-heating of TF-containing compositions to enhance the effects of other components, such as PALP and AT will unlikely to alter the ability of TF to reduce tumor- and chemotherapy-induced body weight loss.
Therefore, a step of heat-activation of AT may be included during the preparation of active compositions.

[7] = test system: fibroblast proliferation; details: in vitro; cited from earlier work
[8] = day 11 after tumor transplantation
[9] = day 14 after tumor transplantation
[10] = day 16 after tumor transplantation
[11] = day 18 after tumor transplantation
[12] = day 21 after tumor transplantation
[13] = day 23, CCDTHT 4.5-mg/kg s.c. daily
[14] = day 23 after tumor transplantation

## holo-TF: commercial holo-transferrin (Sigma T 0665), 1,100-1,600 μg iron per gram protein
[1]
  Effect on cisplatin-induced body weight loss: partially reversed cisplatin-induced body weight loss

## CC[N+](C)(CC)CCOCc1ccc2sc3ccccc3c(=O)c2c1.[I-] [CCDTHT, N,N-diethyl-N-methyl-2-[(9-oxo-9H-thioxanthen-2-yl)methoxy]-ethanaminium iodide]
[2]; CCDTHT 4.5-mg/kg s.c. daily
  Effect on body weight: modest weight gain
[2]; [8]
  Body weight (total weight minus tumor weight): 22.4 g
  Total weight: 23.0 g
  Tumor weight: 0.6 g
[2]; [9]
  Body weight (total weight minus tumor weight): 22.9 g
  Total weight: 23.7 g
  Tumor weight: 0.8 g
[2]; [10]
  Body weight (total weight minus tumor weight): 23.2 g
  Total weight: 24.2 g
  Tumor weight: 1.0 g
[2]; [11]
  Body weight (total weight minus tumor weight): 23.4 g
  Total weight: 24.7 g
  Tumor weight: 1.3 g
[2]; [12]
  Body weight (total weight minus tumor weight): 23.6 g
  Total weight: 25.4 g
  Tumor weight: 1.8 g
[2]; [13]
  Body weight difference to control mice: about 10%
  Body weight heavier than control mice: 2.6 grams
[2]; [14]
  Body weight (total weight minus tumor weight): 23.8 g
  Total weight: 25.9 g
  Tumor weight: 2.1 g
[3]
  Effect on cisplatin-induced body weight loss: effectively prevents cisplatin-induced body weight loss

## TF s.c.: commercial partially iron-saturated human transferrin (Sigma T 3309)
[4]
  Effect on body weight loss induced by the tumor and cisplatin: partially reversed body weight loss
[5]; commercial PALP 60-mg/kg s.c.
  Effect on body weight loss: stabilized body weights but did not promote weight gain
[5]; [8]
  Body weight (total weight minus tumor weight): 22.4 gram
  Total weight: 22.9 gram
  Tumor weight: 0.5 gram
[5]; [9]
  Body weight (total weight minus tumor weight): 23.5 gram
  Total weight: 24.2 gram
  Tumor weight: 0.7 gram
[5]; [10]
  Body weight (total weight minus tumor weight): 23.5 gram
  Total weight: 24.3 gram
  Tumor weight: 0.8 gram
[5]; [11]
  Body weight (total weight minus tumor weight): 23.6 gram
  Total weight: 25.0 gram
  Tumor weight: 1.4 gram
[5]; [12]
  Body weight (total weight minus tumor weight): 23.9 gram
  Total weight: 26.1 gram
  Tumor weight: 2.2 gram
[5]; [14]
  Body weight (total weight minus tumor weight): 23.9 gram
  Total weight: 26.6 gram
  Tumor weight: 2.7 gram
[6]
  Effect of pre-heating on the stimulatory effects on fibroblast proliferation: not altered by pre-heating it at up to 75 °C for 30 min

## AT: human α1-antitrypsin purified to homogeneity from commercial PALP
[1]
  Effect on cisplatin-induced body weight loss: partially reversed cisplatin-induced body weight loss
[7]
  Effect of pre-heating on the stimulatory effect on fibroblast proliferation: enhanced by pre-heating it at 65-75 °C for 30 min or at 41 °C for 21 hours

## apo-TF: commercial apo-transferrin (Sigma T 2036), essentially iron-free
[1]
  Effect on cisplatin-induced body weight loss: partially reversed cisplatin-induced body weight loss
